Assay results: patent US7345033B2, “Carbamoyl-and thiocarbamoyl-phosphonates and pharmaceutical compositions comprising them” (Yissum Research Development Company of the Hebrew …, priority 2003, dated 2008)
“Also recorded” adds a separate entry of the source. Read-outs that look alike come from different tables or passages of the source.

Tests used:
cancer cells = test: Matrigel chemoinvasion assay (Boyden chambers); type: cell-based; details: 6 h, read-out: Chemoinvasion % inhibition at 50 μM
Excerpt: Matrigel Chemoinvasion Assay
This assay measures in vitro the potency of the compounds to repress the invasiveness of cancer cells, by inhibiting the MMPs produced by them. The assay uses a reconstituted basement membrane preparation, which is similar to the natural basement membranes that the tumor cells have to cross, in order to disseminate. The compounds examined have been added to the invasion chambers at various concentrations, and the resulted invasion was compared to untreated preparations.
Description of the of the Matrigel Chemoinvasion Experiment
a) The chemoinvasion assays were performed in Boyden chambers. Matrigel (25 μg) was dried on a polycarbonated filter (PVP free, Nucleopore). Fibroblast conditioned medium (obtained from confluent NIH-3T3 cells cultured in serum free DMEM) is used as the chemoattractant. […] The chambers were incubated in a humidified incubator at 37° C. in 5% CO2/95% air atmosphere for 6 h. The cells, which traversed the Matrigel layer and attached to the lower surface of the filter, were stained with Diff Quick (American Scientific Products) and counted.
The various compounds were examined as potential inhibitors at three concentrations: 100 μM, 50 μM and 10 μM.

recombinant MMP-2 = biological target: T1, recombinant MMP-2 (Homo sapiens, UniProt P08253); test: MMP inhibitory potency in vitro, succinylated-gelatin colorimetric assay; type: biochemical
T1 construct: purchased
T1 sequence (P08253 110-660): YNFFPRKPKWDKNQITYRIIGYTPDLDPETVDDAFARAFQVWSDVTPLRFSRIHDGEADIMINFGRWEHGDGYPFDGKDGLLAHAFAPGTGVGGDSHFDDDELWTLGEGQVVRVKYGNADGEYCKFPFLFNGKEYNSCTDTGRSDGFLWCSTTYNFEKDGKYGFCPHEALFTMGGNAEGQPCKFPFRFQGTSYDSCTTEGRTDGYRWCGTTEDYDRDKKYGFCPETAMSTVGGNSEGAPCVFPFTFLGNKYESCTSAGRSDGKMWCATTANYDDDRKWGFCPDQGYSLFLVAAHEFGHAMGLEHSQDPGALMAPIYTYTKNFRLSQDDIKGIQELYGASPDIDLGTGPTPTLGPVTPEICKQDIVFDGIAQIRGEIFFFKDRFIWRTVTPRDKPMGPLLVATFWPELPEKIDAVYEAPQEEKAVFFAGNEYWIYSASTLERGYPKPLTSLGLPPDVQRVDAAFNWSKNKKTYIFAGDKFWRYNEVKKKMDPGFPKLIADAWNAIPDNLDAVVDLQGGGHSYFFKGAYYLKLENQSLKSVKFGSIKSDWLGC
Description: (§1) Determination of MMP Inhibitory Potency (IC50 Values) in vitro
(§2) The commercially available recombinant MMP-2 and MMP-9 enzymes were incubated with succinylated-gelatin at four different concentrations for 3 h. The examined compounds were added at four to six different concentrations to the recombinant enzymes and the inhibitory potencies were expressed in a colorimetric change measured by an ELISA reader. The inhibitory activity (IC50) was calculated from the kinetic data obtained.

recombinant MMP-9 = biological target: T2, recombinant MMP-9 (Homo sapiens, UniProt P14780); test: as above; type: biochemical
T2 construct: purchased
Description: as §1, §2

Endothelial cells = test: Endothelial cell capillary tube formation; type: cell-based; details: read-out: Capillary Formation Inhibition % At 50 μM
Excerpt: Endothelial Cell Capillary Tube Formation
Some of the compounds were examined as to their potency to inhibit capillary formation, which is an in vitro model of angiogenesis, an essential step in the development of primary tumor and metastatic lesions. Endothelial cell migration to the newly formed tumor is the initial phase of angiogenesis, and is dependent on MMP expression. By using this assay that measures endothelial cell tube formation, the effects of some carbamoylphosphonates on angiogenesis at concentrations ranging from 100-5 μM were evaluated.
Description of the Endothelial Cell Capillary Tube Formation Experiment
Endothelial cells are harvested by 1 mM EDTA, and added to a Matrigel layer in a 24 well plate at 50,000 cells per well. After attachment, culture media (1 ml) is added and the plate is incubated as a monolayer culture. The plates are analyzed hourly using Hoffinan optics. This assay is used to evaluate inhibitory factors or stimulatory factors on capillary like structure formation, which may be added into the culture media.

murine melanoma = test: Tumor growth and metastasis in vivo, murine melanoma model; design: species or system mice; details: Mus musculus, 504 h
Excerpt: Tumor Growth and Metastasis in Animal Models—in vivo Test
The abilities of the novel carbamoylphosphonates to inhibit the formation of metastatic lesions in vivo were examined in the murine melanoma model both by intraperitoneal (IP) and peroral (PO) administration. […] This is especially important, since oral administration is the most convenient one for the patient, especially for long term chronic treatments such as those envisaged for drugs that are the subject of this application.

MMP-1 = biological target: T3, MMP-1 (Homo sapiens, UniProt P03956); test: Selectivity towards different MMPs: MMP-1; type: biochemical; details: Table 2
T3 sequence (P03956 100-469): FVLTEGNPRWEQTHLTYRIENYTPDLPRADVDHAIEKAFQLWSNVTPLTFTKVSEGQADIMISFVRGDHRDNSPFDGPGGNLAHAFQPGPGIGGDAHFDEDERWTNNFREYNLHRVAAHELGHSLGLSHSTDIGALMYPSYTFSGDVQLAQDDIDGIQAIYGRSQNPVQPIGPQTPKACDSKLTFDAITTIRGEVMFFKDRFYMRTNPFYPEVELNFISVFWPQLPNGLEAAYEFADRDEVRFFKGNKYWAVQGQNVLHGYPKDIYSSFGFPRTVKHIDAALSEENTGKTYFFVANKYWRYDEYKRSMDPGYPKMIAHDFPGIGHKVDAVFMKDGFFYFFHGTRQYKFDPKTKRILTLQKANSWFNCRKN

MMP-3 = MMP-3 (Homo sapiens, UniProt P08254); test: Selectivity towards different MMPs: MMP-3; type: biochemical; details: Table 2
MMP-8 = MMP-8 (Homo sapiens, UniProt P22894); test: Selectivity towards different MMPs: MMP-8; type: biochemical; details: Table 2
[1] = Acute in vivo toxicity in healthy mice; details: daily for two weeks at 50, 250 and 500 mg/kg
Excerpt: Determination of Acute in vivo Toxicity of Representative Carbamoylphosphonates

restenosis = test: Rabbit model of restenosis (balloon injury, hypercholesterolemic); type: in vivo, New Zealand White rabbits; details: IP, total 70 mg/kg in 5 doses on days -1, +1, +4, +6, +8; after 30 days
Description: Rabbit Model of Restenosis
New Zealand White rabbits (Harlan Laboratories, Jerusalem, Israel) weighing 2.5 to 3.5 kg were used in accordance with the guidelines for animal care of the Hebrew University of Jerusalem and National Institutes of Health (USA). Animals were fed an atherogenic diet of 2% cholesterol and 6% peanut oil, starting 30 days before angioplasty. Hypercholesterolemia was ascertained (plasma cholesterol: 1200 mg/dL). Animals were anesthetized by xylazine (7 mg/kg) and ketamine (40 mg/kg). Heparin (200 U/kg), atropine (0.05 mg), and norfloxacin nicotinate (70 mg) were given. […] The control animals received saline. An investigator blinded to the type of experimental group performed the experiments. After euthanasia with pentothal, arteries were perfusion-fixed in situ with 150 mL of 4% formaldehyde solution (pH 7.4), processed for morphometric analysis, and stained with Verhoeff elastin staining, Mayer hematoxylin and eosin, and modified Movat pentachrome. Five animals were used in the experiment and five in the control group.
The marked inhibition of restenosis is unparalleled to other therapeutic modalities in this model (various antiinflammatories or antiproliferative agents). […] It should be noted that the larger lumen in the treatment group was achieved despite the general smaller size of the artery.

[2] = test system: Human prostate tumor cells DU145, PC3 or LMCap; test: Orthotopic prostate tumor model; type: in vivo, mice; details: 50 mg/kg IP daily for 5 weeks, vs untreated control
Description: Human prostate tumor cells DU145, PC3 or LMCap transfected with a luciferase gene were injected orthotopically into the prostate of male mice (2×10^6 cells/mouse). […] The mice were monitored for local tumor growth and metastasis formation with a cooled charged coupled device camera (CCCD) sensitive to photons, weekly, starting 14 days after tumor implantation. The emitted photons are converted into a digitalized image proportional to the amount of photons emitted by the tumor cell upon exposure to luciferin.

T2 sequence (P14780 94-707, species assumed): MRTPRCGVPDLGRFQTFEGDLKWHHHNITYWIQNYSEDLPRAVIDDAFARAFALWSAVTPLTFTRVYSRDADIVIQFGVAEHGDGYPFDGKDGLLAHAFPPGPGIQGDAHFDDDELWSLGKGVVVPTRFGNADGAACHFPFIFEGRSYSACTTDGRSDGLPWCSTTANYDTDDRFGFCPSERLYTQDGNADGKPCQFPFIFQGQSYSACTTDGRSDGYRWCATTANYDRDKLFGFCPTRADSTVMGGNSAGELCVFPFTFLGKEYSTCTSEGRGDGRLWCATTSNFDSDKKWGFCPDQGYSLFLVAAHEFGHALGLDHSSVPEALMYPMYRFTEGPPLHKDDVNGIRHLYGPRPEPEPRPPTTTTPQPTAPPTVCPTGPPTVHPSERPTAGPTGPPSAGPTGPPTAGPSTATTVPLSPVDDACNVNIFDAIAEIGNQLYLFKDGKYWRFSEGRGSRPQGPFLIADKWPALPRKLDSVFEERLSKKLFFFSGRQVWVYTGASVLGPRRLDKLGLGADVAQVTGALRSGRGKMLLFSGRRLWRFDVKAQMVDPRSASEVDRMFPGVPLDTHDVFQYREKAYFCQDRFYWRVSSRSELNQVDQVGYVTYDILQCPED
Sequence of MMP-8 (P22894 101-467, species assumed): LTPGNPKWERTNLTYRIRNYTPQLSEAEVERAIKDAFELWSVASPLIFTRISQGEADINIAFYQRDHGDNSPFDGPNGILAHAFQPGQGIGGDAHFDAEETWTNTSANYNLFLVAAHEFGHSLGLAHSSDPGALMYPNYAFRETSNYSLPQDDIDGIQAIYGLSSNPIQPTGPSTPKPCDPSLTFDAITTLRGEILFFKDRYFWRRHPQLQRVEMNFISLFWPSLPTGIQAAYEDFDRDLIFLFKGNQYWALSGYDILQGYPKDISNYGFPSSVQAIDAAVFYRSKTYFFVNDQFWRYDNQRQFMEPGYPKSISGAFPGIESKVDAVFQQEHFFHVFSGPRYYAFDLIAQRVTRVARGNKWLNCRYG
Sequence of MMP-3 (P08254 100-477, species assumed): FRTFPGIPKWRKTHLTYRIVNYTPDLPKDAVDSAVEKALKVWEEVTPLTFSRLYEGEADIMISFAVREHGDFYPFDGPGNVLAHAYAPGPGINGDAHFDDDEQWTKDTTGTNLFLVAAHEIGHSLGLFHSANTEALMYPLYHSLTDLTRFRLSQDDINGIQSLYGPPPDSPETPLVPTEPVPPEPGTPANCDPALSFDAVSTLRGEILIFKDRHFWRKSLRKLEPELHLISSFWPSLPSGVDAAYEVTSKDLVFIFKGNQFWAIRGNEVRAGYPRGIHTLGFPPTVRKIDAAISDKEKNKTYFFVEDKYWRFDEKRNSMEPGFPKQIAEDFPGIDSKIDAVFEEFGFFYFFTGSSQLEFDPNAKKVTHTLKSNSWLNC

N[C@@H]1CCCC[C@@H]1NC(=O)P(=O)(O)O (relative stereo) [Compound 11, N-(cis-2-aminocyclohexyl)carbamoylphosphonic acid]
inhibition at 50 µM (cancer cells): 62%
IC50 (recombinant MMP-2): 0.06 µM
IC50 (recombinant MMP-9): 20 µM
inhibition at 50 µM (Endothelial cells): 72%
inhibition in vivo at 50 mg/kg (murine melanoma; ip, read-out: In vivo murine melanoma % reduction IP): 77%
inhibition in vivo at 50 mg/kg (murine melanoma; po, read-out: In vivo murine melanoma % reduction PO): 86%
IC50 (MMP-1): > 100 µM
IC50 (MMP-3): > 100 µM
IC50 (MMP-8): > 100 µM
toxicity [1]: devoid of any toxicity even at 10 times the effective dose, namely at 500 mg/kg
inhibition of restenosis (restenosis): significant and marked inhibition of restenosis; also recorded: selective in vivo activity against restenosis
tumor dissemination (metastatic spread) [2]: significantly lower tumor dissemination
tumor volume (local tumor growth) [2]: significantly lower tumor volume
